{"source": "patent US20130028987A1", "about": "“Method of treating psoriasis” (priority 2011, published 2013)", "system": "phosphorylase kinase", "experiment": "inhibition of phosphorylase kinase activity", "format": "biochemical", "settings": "findings of the instant inventor; no experiment described", "data": [{"molecule": "COc1cc(/C=C/C(=O)CC(=O)/C=C/c2ccc(O)c(OC)c2)ccc1O", "note": "[Curcumin]", "values": [{"measurement": "inhibition of phosphorylase kinase", "result": "selective and non-competitive inhibitor of phosphorylase kinase"}]}]}
